Assay results reported in US6605628B1, “Method of using 5-(arysulfonyl)-, 5-(arylsulfanyl)-and 5-(arylsulfanyl)thiazolidine-2,4-diones for inhibition of farnesyl-protein transferase” (Wyeth Holdings Corporation, priority 2001, dated 2003).
Blank lines part the entries; values can stand above or below the compound they belong to.

Tests used:
FPTase [1] = biological target: T1, FPTase (Homo sapiens, UniProt P49354+P49356); experiment: in vitro FTase Inhibition Assay, K-Ras used as substrate for farnesylation; assay type: biochemical; conditions: Table I
Experimental: Enzyme test procedure: FPTase inhibition in vitro assay was performed according to James, G. L., Brown, M. S., and Goldstein, J. L., Methods in Enzymology, 1995, 255, 38-46; and Garcia, M. A., et al., J. Biol. Chem., 1993, 268, 18415-18420.
Materials—Purified FPTase (Moomaw, J. F. and Casey, P. J., J. Biol. Chem., 1992, 267, 17438-17443), purified His6-Ras, inhibitor compounds at 10 mg/ml or 10 mM in 100% DMSO, ^3H-FPP (50,000 dpm/pmol) Amersham, TCA/SDS (6%/2%), TCA (6%), Glass fiber filters ([…]), vacuum manifold or 96 well filtration plates.
Methods—1. Dilute FPTase inhibitors from stock solutions to 2.5× in 2.5% DMSO, 10 mM DTT, 0.5% octyl-B-glucoside. 2. Solution #1 is added to FPTase reaction in a volume of […]. 3. Standard reaction mix, […], contains 50 mM Tris (7.5), 10 mM ZnCl2, 3 mM MgCl2, 20 mM KCl, 5 mM DTT, 0.2% octyl-B-glucoside, 1% DMSO, […] His6-Ras, 10 ng FPTase, and various concentrations of FPTase inhibitors. 4. Incubate for 30-90 min at 25° C. 5. Stop reactions with TCA/SDS (6%/2%), hold at 4° C. for 45-60 min. 6. Filter by manifold or 96 well plate, wash filter 3-5× with TCA (6%). 7. Add scintillant to filters, measure ^3H-FPP incorporation into Ras protein.
Analysis of Results—Percent inhibition by test compounds is determined by the following:
(cpm from precipitated Ras with test compounds)−(background cpm)×100=% inhibition.
(cpm from precipitated Ras without test compounds)−(background cpm)

FPTase [2] = biological target: T1, FPTase; experiment: in vitro FTase Inhibition Assay, H-Ras used as substrate for farnesylation; assay type: biochemical; conditions: Table I, read-out: IC50 H-Ras*
[3] = tested on: K-ras dependent human colon carcinoma (LoVo); experiment: in vivo effects against K-ras dependent human colon carcinoma (LoVo); conditions: for S/T = No. Survivors/No.Treated: Day +35 post tumor cell implantation
Source text: […] For the compound of example 114, when tested against a K-ras dependent human colon carcinoma (LoVo), the following results were obtained (Table III):

[4] = 50 mg/kg per dose IP, BID days 1 through 20, control 0.5% Methocel 0.4% Tween 80
[5] = 75 mg/kg per dose IP, BID days 1 through 20, control 0.5% Methocel 0.4% Tween 80
[6] = 100 mg/kg per dose IP, once a day on days 1 through 20, control 0.5% Methocel 0.4% Tween 80
[7] = 100 mg/kg per dose PO, BID days 1 through 20, control 0.5% Methocel 0.4% Tween 80
[8] = 100 mg/kg per dose PO, BID days 1 through 20, control 20% BCD in 1.1N HCl
[9] = 75* mg/kg per dose IP, BID days 1 through 20, prepared in 2% Tween 80 in D5W, control 2% Tween in D5W

- melting point: 54 to 56 °C
Compound: COc1ccc(SC2(CCCCCCCCCC#Cc3ccc(Cl)cc3)SC(=O)NC2=O)cc1 (stereo not drawn) [Example 94, 5-[11-(4-Chlorophenyl)undec-10-ynyl]-5-(4-methoxy-phenylsulfanyl)-thiazolidine-2,4-dione]

- melting point: 145 to 148 °C
Compound: COc1ccc(S(=O)(=O)C2(CCCCC#Cc3ccc(Cl)cc3)SC(=O)NC2=O)cc1 (stereo not drawn) [Example 98, 5-[6-(4-Chlorophenyl)hex-5-ynyl]-5-(4-methoxyphenylsulfonyl)-thiazolidine-2,4-dione]

- IC50 (FPTase [1]): 0.11 to 1 µM
- IC50 (FPTase [2]): 0.01 to 0.03 µM
- melting point: 133 to 135 °C
Compound: COc1ccc(S(=O)(=O)C2(CCCC#Cc3ccccc3Cl)SC(=O)NC2=O)cc1 (stereo not drawn) [Example 101, 5-[5-(2-Chlorophenyl)pent-4-ynyl]-5-(4-methoxybenzenesulfonyl)thiazolidine-2,4-dione]

- IC50 (FPTase [1]): 1.4 µM
- IC50 (FPTase [2]): 0.03 to 0.032 µM
- melting point: 134 to 136 °C
Compound: COc1ccc(S(=O)(=O)C2(CCCC#Cc3cccc(Cl)c3)SC(=O)NC2=O)cc1 (stereo not drawn) [Example 102, 5-[5-(3-Chlorophenyl)pent-4-ynyl]-5-(4-methoxybenzenesulfonyl)thiazolidine-2,4-dione]

- IC50 (FPTase [1]): 0.9 to 10 µM
- IC50 (FPTase [2]): 0.03 to 0.05 µM
- melting point: 176 to 177 °C
Compound: Cc1ccc(S(=O)(=O)C2(CCCC#Cc3ccc(Cl)cc3)SC(=O)NC2=O)cc1 (stereo not drawn) [Example 103, 5-[5-(4-Chlorophenyl)pent-4-ynyl]-5-(p-tolylsulfonyl)thiazolidine-2,4-dione]

- IC50 (FPTase [1]): 0.23 to 0.9 µM
- IC50 (FPTase [2]): 0.03 to 0.054 µM
- melting point: 157 to 159 °C
Compound: O=C1NC(=O)C(CCCC#Cc2ccc(Cl)cc2)(S(=O)(=O)c2ccc(I)cc2)S1 (stereo not drawn) [Example 104, 5-[5-(4-Chlorophenyl)pent-4-ynyl]-5-(4-iodobenzenesulfonyl)thiazolidine-2,4-dione]

- IC50 (FPTase [1]): 1.3 to 1.7 µM
- IC50 (FPTase [2]): 0.23 to 0.25 µM
- melting point: 193 to 194 °C
Compound: O=C1NC(=O)C(CCCC#Cc2ccc(Cl)cc2)(S(=O)(=O)c2ccc(Oc3ccccc3)cc2)S1 (stereo not drawn) [Example 106, 5-[5-(4-Chlorophenyl)pent-4-ynyl]-5-(4-phenoxybenzenesulfonyl)-thiazolidine-2,4-dione]

- IC50 (FPTase [1]): 0.62 to 0.7 µM
- IC50 (FPTase [2]): 0.18 to 0.2 µM
- melting point: 150 to 153 °C
Compound: O=C1NC(=O)C(CCCC#Cc2ccc(Cl)cc2)(S(=O)(=O)c2ccc3ccccc3c2)S1 (stereo not drawn) [Example 107, 5-[5-(4-Chlorophenyl)pent-4-ynyl]-5-(naphthalene-2-sulfonyl)thiazolidine-2,4-dione]

- IC50 (FPTase [1]): ≥ 9 µM
- IC50 (FPTase [2]): 0.13 to 0.18 µM
- melting point: 232 °C (dec.)
Compound: CC(=O)Nc1ccc(S(=O)(=O)C2(CCCC#Cc3ccc(Cl)cc3)SC(=O)NC2=O)cc1 (stereo not drawn) [Example 108, N-(4-{5-[5-(4-Chlorophenyl)pent-4-ynyl]-2,4-dioxothiazolidine-5-sulfonyl}phenyl)acetamide]

- IC50 (FPTase [1]): 0.3 to 0.55 µM
- IC50 (FPTase [2]): 0.11 to 0.15 µM
- melting point: 181 to 184 °C
Compound: O=C1NC(=O)C(CCCC#Cc2ccc(Cl)cc2)(S(=O)(=O)c2ccc(OCc3ccccc3)cc2)S1 (stereo not drawn) [Example 111, 5-(4-Benzyloxybenzenesulfonyl)-5-[5-(4-chlorophenyl)pent-4-ynyl]-thiazolidine-2,4-dione]

Compound: CCCCOc1ccc(S(=O)(=O)C2(CCCC#Cc3ccc(Cl)cc3)SC(=O)NC2=O)cc1 (stereo not drawn) [Example 112, 5-(4-Butoxybenzenesulfonyl)-5-[5-(4-chlorophenyl)-pent-4-ynyl]-thiazolidine-2,4-dione]
- IC50 (FPTase [1]): 1.4 to 1.5 µM
- IC50 (FPTase [2]): 0.59 to 0.6 µM
- melting point: 116 to 118 °C

- IC50 (FPTase [1]): 0.75 to 0.8 µM
- IC50 (FPTase [2]): 0.05 to 0.06 µM
- melting point: 172 to 174 °C
Compound: O=C1NC(=O)C(CCCC#Cc2ccc(Cl)cc2)(S(=O)(=O)c2cccc3ccccc23)S1 (stereo not drawn) [Example 113, 5-[5-(4-Chlorophenyl)pent-4-ynyl]-5-(naphthalene-1-sulfonyl)-thiazolidine-2,4-dione]

Compound: COc1ccc(S(=O)(=O)C2(CCCC#Cc3cc(Cl)ccc3Cl)SC(=O)NC2=O)cc1 (stereo not drawn) [Example 114, 5-[5-(2,5-Dichloro-phenyl)pent-4-ynyl]-5-(4-methoxy-benzenesulfonyl)-thiazolidine-2,4-dione]
- IC50 (FPTase [1]): 0.032 to 0.32 µM
- % T/C, Day8 [3, 4]: 74%
- % T/C, Day 15 [3, 4]: 47%
- % T/C, Day 22 [3, 4]: 43%
- % T/C, Day 29 [3, 4]: 59%
- % T/C, Day 36 [3, 4]: 76%
- Mean Tumor Weight, Day8 [3, 4]: 65 mg
- Mean Tumor Weight, Day 15 [3, 4]: 146 mg
- Mean Tumor Weight, Day 22 [3, 4]: 258 mg
- Mean Tumor Weight, Day 29 [3, 4]: 445 mg
- Mean Tumor Weight, Day 36 [3, 4]: 964 mg
- S/T = No. Survivors/No.Treated [3, 4]: 5/10
- % T/C, Day8 [3, 5]: 51%
- % T/C, Day 15 [3, 5]: 36%
- % T/C, Day 22 [3, 5]: 43%
- % T/C, Day 29 [3, 5]: 67%
- % T/C, Day 36 [3, 5]: 60%
- Mean Tumor Weight, Day8 [3, 5]: 45 mg
- Mean Tumor Weight, Day 15 [3, 5]: 110 mg
- Mean Tumor Weight, Day 22 [3, 5]: 255 mg
- Mean Tumor Weight, Day 29 [3, 5]: 504 mg
- Mean Tumor Weight, Day 36 [3, 5]: 764 mg
- S/T = No. Survivors/No.Treated [3, 5]: 8/10
- % T/C, Day8 [3, 6]: 35%
- % T/C, Day 15 [3, 6]: 41%
- % T/C, Day 22 [3, 6]: 42%
- % T/C, Day 29 [3, 6]: 46%
- % T/C, Day 36 [3, 6]: 44%
- Mean Tumor Weight, Day8 [3, 6]: 31 mg
- Mean Tumor Weight, Day 15 [3, 6]: 125 mg
- Mean Tumor Weight, Day 22 [3, 6]: 251 mg
- Mean Tumor Weight, Day 29 [3, 6]: 341 mg
- Mean Tumor Weight, Day 36 [3, 6]: 559 mg
- S/T = No. Survivors/No.Treated [3, 6]: 9/10
- % T/C, Day8 [3, 7]: 70%
- % T/C, Day 15 [3, 7]: 77%
- % T/C, Day 22 [3, 7]: 76%
- % T/C, Day 29 [3, 7]: 81%
- % T/C, Day 36 [3, 7]: 74%
- Mean Tumor Weight, Day8 [3, 7]: 61 mg
- Mean Tumor Weight, Day 15 [3, 7]: 238 mg
- Mean Tumor Weight, Day 22 [3, 7]: 454 mg
- Mean Tumor Weight, Day 29 [3, 7]: 608 mg
- Mean Tumor Weight, Day 36 [3, 7]: 934 mg
- S/T = No. Survivors/No.Treated [3, 7]: 10/10
- % T/C, Day8 [3, 8]: 81%
- % T/C, Day 15 [3, 8]: 95%
- % T/C, Day 22 [3, 8]: 88%
- % T/C, Day 29 [3, 8]: 128%
- % T/C, Day 36 [3, 8]: 107%
- Mean Tumor Weight, Day8 [3, 8]: 50 mg
- Mean Tumor Weight, Day 15 [3, 8]: 138 mg
- Mean Tumor Weight, Day 22 [3, 8]: 299 mg
- Mean Tumor Weight, Day 29 [3, 8]: 641 mg
- Mean Tumor Weight, Day 36 [3, 8]: 872 mg
- S/T = No. Survivors/No.Treated [3, 8]: 9/10
- % T/C, Day8 [3, 9]: 221%
- % T/C, Day 15 [3, 9]: 150%
- % T/C, Day 22 [3, 9]: 163%
- % T/C, Day 29 [3, 9]: 167%
- % T/C, Day 36 [3, 9]: 157%
- Mean Tumor Weight, Day8 [3, 9]: 86 mg
- Mean Tumor Weight, Day 15 [3, 9]: 182 mg
- Mean Tumor Weight, Day 22 [3, 9]: 324 mg
- Mean Tumor Weight, Day 29 [3, 9]: 478 mg
- Mean Tumor Weight, Day 36 [3, 9]: 666 mg
- S/T = No. Survivors/No.Treated [3, 9]: 10/10
- IC50 (FPTase [2]): 0.013 to 0.032 µM

- melting point: 128 to 130 °C
Compound: COC(=O)c1ccc(C#CCCCC2(S(=O)(=O)c3ccc(OC)cc3)SC(=O)NC2=O)c(C)c1 (stereo not drawn) [Example 160, 4-{5-[5-(4-Methoxybenzenesulfonyl)-2,4-dioxothiazolidin-5-yl]pent-1-ynyl}-3-methylbenzoic Acid Methyl Ester]

- IC50 (FPTase [2]): 0.9 µM
- melting point: 206 to 207 °C
Compound: COc1ccc(S(=O)(=O)C2(CCCC#Cc3ccc(-n4cccc4)cc3)SC(=O)NC2=O)cc1 (stereo not drawn) [Example 161, 5-(4-Methoxybenzenesulfonyl)-5-[5-(4-pyrrol-1-yl-phenyl)pent-4-ynyl]-thiazolidine-2,4-dione]

- IC50 (FPTase [2]): 1.3 µM
- melting point: 204 to 206 °C
Compound: O=C1NC(=O)C(CCCC#Cc2ccc(-n3cccc3)cc2)(S(=O)(=O)c2ccc(OC(F)(F)F)cc2)S1 (stereo not drawn) [Example 163, 5-[5-(4-Pyrrol-1-ylphenyl)pent-4-ynyl]-5-(4-trifluoromethoxybenzenesulfonyl)-thiazolidine-2,4-dione]
